This passage reports IC50 results from patent US20110224204A1, “DI-SUBSTITUTED PHENYL COMPOUNDS” (priority 2008, published 2011).

In general, IC50 refers to the concentration that inhibits the measured activity by half.

The assay deals with Human PDE10A1 (Homo sapiens, UniProt Q9Y233). The assay can be described thus: hPDE10A1 Enzyme Inhibition. The note with it: [3H]-cAMP substrate; read-out: hPDE10A1 IC50 Band. In kind it is biochemical. The procedure:
hPDE10A1 Enzyme Activity: 50 μl samples of serially diluted Human PDE10A1 enzyme were incubated with 50 μl of [^3H]-cAMP for 20 minutes (at 37° C.). Reactions were carried out in Greiner 96 deep well 1 ml master-block. The enzyme was diluted in 20 mM Tris HCl pH7.4 and [^3H]-cAMP was diluted in 10 mM MgCl2, 40 mM Tris.HCl pH 7.4. The reaction was terminated by denaturing the PDE enzyme (at 70° C.) after which [^3H]-5′-AMP was converted to [^3H]-adenosine by adding 25 μl snake venom nucleotidase and incubating for 10 minutes (at 37° C.). Adenosine, being neutral, was separated from charged cAMP or AMP by the addition of 200 μl Dowex resin. Samples were shaken for 20 minutes then centrifuged for 3 minutes at 2,500 r.p.m. 50 μl of supernatant was removed and added to 200 μl of MicroScint-20 in white plates (Greiner 96-well Optiplate) and shaken for 30 minutes before reading on Perkin Elmer TopCount Scintillation Counter.
hPDE10A1 Enzyme Inhibition: To check inhibition profile 11 μl of serially diluted inhibitor was added to 50 μl of [^3H]-cAMP and 50 ul of diluted Human PDE10A1 and assay was carried out as in the enzyme activity assay. Data was analysed using Prism software (GraphPad Inc).

Human PDE10A1, sequence (Q9Y233 1-779 isoform Q9Y233-1): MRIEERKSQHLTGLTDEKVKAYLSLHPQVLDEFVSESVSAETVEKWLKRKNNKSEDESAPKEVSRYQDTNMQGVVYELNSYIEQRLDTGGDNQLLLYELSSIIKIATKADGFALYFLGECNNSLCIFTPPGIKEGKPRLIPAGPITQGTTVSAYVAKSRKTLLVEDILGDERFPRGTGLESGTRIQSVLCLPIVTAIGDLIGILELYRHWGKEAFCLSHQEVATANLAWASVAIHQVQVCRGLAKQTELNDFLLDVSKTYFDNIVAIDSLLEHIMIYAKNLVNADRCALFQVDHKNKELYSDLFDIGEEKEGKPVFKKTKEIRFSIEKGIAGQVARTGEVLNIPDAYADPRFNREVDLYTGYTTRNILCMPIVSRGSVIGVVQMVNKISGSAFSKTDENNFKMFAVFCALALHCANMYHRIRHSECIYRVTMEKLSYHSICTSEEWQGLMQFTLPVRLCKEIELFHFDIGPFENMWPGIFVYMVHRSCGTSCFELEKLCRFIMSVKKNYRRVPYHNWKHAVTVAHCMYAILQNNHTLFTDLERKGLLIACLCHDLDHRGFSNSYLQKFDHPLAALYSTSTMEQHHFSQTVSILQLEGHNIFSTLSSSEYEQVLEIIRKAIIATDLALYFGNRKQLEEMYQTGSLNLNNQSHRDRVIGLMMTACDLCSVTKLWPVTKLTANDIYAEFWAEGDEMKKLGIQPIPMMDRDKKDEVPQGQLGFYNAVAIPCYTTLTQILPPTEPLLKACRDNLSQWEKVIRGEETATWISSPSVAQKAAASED

Consider `Clc1ccc(-c2ccccc2-c2ccc(OCc3ccc4ccccc4n3)cc2)cc1` [Example 180], for which the IC50 was above 0.05 µM. Consider `COc1cc(-c2ccccc2-c2ccc(OCc3ccc4ccccc4n3)cc2)ccc1C#N` [Example 205], for which the IC50 is at most 0.05 µM.

As to `N#Cc1ccc(-c2ccccc2-c2ccc(OCc3ccc4ccccc4n3)cc2)cc1` [Example 255], the IC50 was at most 0.05 µM. In the case of `COc1ccc(-c2ccccc2-c2ccc(OCc3ccc4ccccc4n3)cc2)cc1C#N` [Example 281], the IC50 was at most 0.05 µM.

Consider `COc1ccc(-c2ccccc2-c2ccc(OCc3ccc4ccccc4n3)cc2)cc1` [Example 330], for which the IC50 is above 0.05 µM.

On to `c1ccc(-c2ccc(OCc3ccc4ccccc4n3)cc2)c(-c2ccncc2)c1` [Example 380, 2-((2′-(Pyridin-4-yl)biphenyl-4-yloxy)methyl)quinoline], for which the IC50 is at most 0.05 µM. For `Fc1cccc(-c2ccncc2)c1-c1ccc(OCc2ccc3ccccc3n2)cc1` [Example 381, 2-(6′-Fluoro-2′-pyridin-4-yl-biphenyl-4-yloxymethyl)-quinoline] the value was above 0.05 µM; for `Clc1cccc(-c2ccncc2)c1-c1ccc(OCc2ccc3ccccc3n2)cc1` [Example 382, 2-((2′-Chloro-6′-(pyridin-4-yl)biphenyl-4-yloxy)methyl)quinoline], at most 0.05 µM.

As for `N#Cc1cccc(-c2ccncc2)c1-c1ccc(OCc2ccc3ccccc3n2)cc1` [Example 383, 6-Pyridin-4-yl-4′-(quinolin-2-ylmethoxy)-biphenyl-2-carbonitrile], the IC50 was at most 0.05 µM. For `O=[N+]([O-])c1cccc(-c2ccncc2)c1-c1ccc(OCc2ccc3ccccc3n2)cc1` [Example 384, 2-(2′-Nitro-6′-pyridin-4-yl-biphenyl-4-yloxymethyl)-quinoline] the value was at most 0.05 µM. For `COc1cccc(-c2ccncc2)c1-c1ccc(OCc2ccc3ccccc3n2)cc1` [Example 385, 2-((2′-Methoxy-6′-(pyridin-4-yl)biphenyl-4-yloxy)methyl)quinoline] the value was at most 0.05 µM. For `Cc1cccc(-c2ccncc2)c1-c1ccc(OCc2ccc3ccccc3n2)cc1` [Example 387, 2-(6′-Methyl-2′-pyridin-4-yl-biphenyl-4-yloxymethyl)-quinoline], the IC50 was at most 0.05 µM. For `CS(=O)(=O)c1cccc(-c2ccncc2)c1-c1ccc(OCc2ccc3ccccc3n2)cc1` [Example 392, 2-((2′-(methylsulfonyl)-6′-(pyridin-4-yl)biphenyl-4-yloxy)methyl)quinoline] the value was at most 0.05 µM; for `Fc1ccc(-c2ccncc2)c(-c2ccc(OCc3ccc4ccccc4n3)cc2)c1` [Example 404, 2-((5′-fluoro-2′-(pyridin-4-yl)biphenyl-4-yloxy)methyl)quinoline], at most 0.05 µM. In the case of `Clc1ccc(-c2ccncc2)c(-c2ccc(OCc3ccc4ccccc4n3)cc2)c1` [Example 405, 2-((5′-Chloro-2′-(pyridin-4-yl)biphenyl-4-yloxy)methyl)quinoline], the IC50 was at most 0.05 µM. For `N#Cc1ccc(-c2ccncc2)c(-c2ccc(OCc3ccc4ccccc4n3)cc2)c1` [Example 406, 6-(Pyridin-4-yl)-4′-(quinolin-2-ylmethoxy)biphenyl-3-carbonitrile] the value was at most 0.05 µM.

As for `Cc1ccc(-c2ccncc2)c(-c2ccc(OCc3ccc4ccccc4n3)cc2)c1` [Example 408, 2-(5′-Methyl-2′-pyridin-4-yl-biphenyl-4-yloxymethyl)-quinoline], the IC50 is at most 0.05 µM.

For `CC(C)c1ccccc1-c1ccc(OCc2ccc3ccccc3n2)cc1` [Example 443, 2-((2′-isopropylbiphenyl-4-yloxy)methyl)quinoline], the IC50 was above 0.05 µM.

`Cc1ccccc1-c1ccc(OCc2ccc3ccccc3n2)cc1` [Example 444, 2-((2′-methylbiphenyl-4-yloxy)methyl)quinoline]: the IC50 is above 0.05 µM.

Consider `c1ccc(N2CCOCC2)c(-c2ccc(OCc3ccc4ccccc4n3)cc2)c1` [Example 445, 4-(4′-(quinolin-2-ylmethoxy)biphenyl-2-yl)morpholine], for which the IC50 was above 0.05 µM. Regarding `N#Cc1cccc(N2CCOCC2)c1-c1ccc(OCc2ccc3ccccc3n2)cc1` [Example 448, 6-morpholino-4′-(quinolin-2-ylmethoxy)biphenyl-2-carbonitrile], the IC50 is at most 0.05 µM.

Regarding `Fc1ccc(N2CCOCC2)c(-c2ccc(OCc3ccc4ccccc4n3)cc2)c1` [Example 469, 4-(5-fluoro-4′-(quinolin-2-ylmethoxy)biphenyl-2-yl)morpholine], the 50% inhibitory concentration (IC50) was at most 0.05 µM. For `Cc1ccc(COc2ccc(-c3ccccc3-c3ccncc3)cc2)nc1` [Example 501, 5-methyl-2-((2′-(pyridin-4-yl)biphenyl-4-yloxy)methyl)pyridine] the value was at most 0.05 µM.

Consider `Fc1ccc2nc(COc3ccc(-c4ccccc4-c4ccncc4)cc3)ccc2c1` [Example 560, 6-fluoro-2-((2′-(pyridin-4-yl)biphenyl-4-yloxy)methyl)quinoline], for which the IC50 is at most 0.05 µM.

Consider `c1ccc(-c2ccc(OCc3cn4ccccc4n3)cc2)c(-c2ccncc2)c1` [Example 619, 2-((2′-(pyridin-4-yl)biphenyl-4-yloxy)methyl)imidazo[1,2-a]pyridine], for which the IC50 is at most 0.05 µM. For `Fc1ccc(-c2ccncc2)c(N2CCC(OCc3ccc4ccccc4n3)CC2)c1` [Example 1706, 2-((1-(5-fluoro-2-(pyridin-4-yl)phenyl)piperidin-4-yloxy)methyl)quinoline] the value was above 0.05 µM; for `O=Cc1cccc(-c2ccncc2)c1-c1ccc(OCc2ccc3ccccc3n2)cc1` [Example 1854, 6-(Pyridin-4-yl)-4′-(quinolin-2-ylmethoxy)biphenyl-2-carbaldehyde], at most 0.05 µM; for `N#Cc1cc(-c2ccccc2-c2ccc(OCc3ccc4ccccc4n3)cc2)ccc1Cl` [Example 1855], at most 0.05 µM.

In the case of `Fc1ccc(-c2ccc(OCc3ccc4ccccc4n3)cc2)c(-c2ccncc2)c1` [Example 1856, 2-(4′-Fluoro-2′-pyridin-4-yl-biphenyl-4-yloxymethyl)-quinoline], the IC50 is at most 0.05 µM. For `c1cc(-c2ccncc2)c(-c2ccc(OCc3ccc4ccccc4n3)cc2)c(C2OCCCO2)c1` [Example 1857, 2-((2′-(1,3-Dioxan-2-yl)-6′-(pyridin-4-yl)biphenyl-4-yloxy)methyl)quinoline] the value was at most 0.05 µM. For `COc1ccc(-c2ccccc2-c2ccc(OCc3ccc4ccccc4n3)cc2)cc1F` [Example 1858] the value was at most 0.05 µM; for `Cc1cc(-c2ccccc2-c2ccc(OCc3ccc4ccccc4n3)cc2)ccn1` [Example 1859, 2-((2′-(2-methylpyridin-4-yl)biphenyl-4-yloxy)methyl)quinoline], at most 0.05 µM. With `COc1ccc(-c2ccccc2-c2ccc(OCc3ccc4ccccc4n3)cc2)cc1C(F)(F)F` [Example 1860], the IC50 is at most 0.05 µM.

Turning to `COc1cc(-c2ccccc2-c2ccc(OCc3ccc4ccccc4n3)cc2)ccc1Cl` [Example 1861], the IC50 is at most 0.05 µM. On to `COc1cc(-c2ccncc2)c(-c2ccc(OCc3ccc4ccccc4n3)cc2)cc1OC` [Example 1862, 2-((4′,5′-dimethoxy-2′-(pyridin-4-yl)biphenyl-4-yloxy)methyl)quinoline], for which the IC50 is above 0.05 µM. On to `c1ccc(-c2ccccc2-c2ccc(OCc3ccc4ccccc4n3)cc2)cc1` [Example 1863], for which the IC50 is above 0.05 µM. Consider `O=C(c1cccc(-c2ccncc2)c1-c1ccc(OCc2ccc3ccccc3n2)cc1)N1CCOCC1` [Example 1864, morpholino(6-(pyridin-4-yl)-4′-(quinolin-2-ylmethoxy)biphenyl-2-yl)methanone], for which the IC50 is above 0.05 µM.

For the compound `N#Cc1ccc(-c2ccccc2-c2ccc(OCc3ccc4ccccc4n3)cc2)cc1Cl` [Example 1865], the IC50 is above 0.05 µM. On to `CCCc1ccccc1-c1ccc(OCc2ccc3ccccc3n2)cc1` [Example 1866, 2-((2′-propylbiphenyl-4-yloxy)methyl)quinoline], for which the IC50 was above 0.05 µM. For `Cc1ccc(-c2ccc(OCc3ccc4ccccc4n3)cc2)c(-c2ccncc2)c1` [Example 1867, 2-(4′-Methyl-2′-pyridin-4-yl-biphenyl-4-yloxymethyl)-quinoline] the value was above 0.05 µM; for `c1ccc(N2CCCC2)c(-c2ccc(OCc3ccc4ccccc4n3)cc2)c1` [Example 1868, 2-((2′-(pyrrolidin-1-yl)biphenyl-4-yloxy)methyl)quinoline], above 0.05 µM; for `COc1ccc(-c2ccccc2-c2ccc(OCc3ccc4ccccc4n3)cc2)cc1Cl` [Example 1869], above 0.05 µM. For the compound `N#Cc1cccc(-c2ccc(OCc3ccc4ccccc4n3)cc2)c1-c1ccncc1` [Example 1870, 2-Pyridin-4-yl-4′-(quinolin-2-ylmethoxy)-biphenyl-3-carbonitrile], the IC50 was above 0.05 µM. On to `c1ccc(-c2ccoc2)c(-c2ccc(OCc3ccc4ccccc4n3)cc2)c1` [Example 1871, 2-((2′-(furan-3-yl)biphenyl-4-yloxy)methyl)quinoline], for which the half-maximal inhibitory concentration (IC50) was above 0.05 µM. Consider `Clc1cccc(-c2ccc(OCc3ccc4ccccc4n3)cc2)c1-c1ccncc1` [Example 1872, 2-((3′-Chloro-2′-(pyridin-4-yl)biphenyl-4-yloxy)methyl)quinoline], for which the IC50 was above 0.05 µM.
